Assay results from US7057052B2, “Heterocyclic quinones as pharmaceutical agents” (Duke University, priority 2002, dated 2006).
pIC50: −log10 of the molar value. Read-outs that look alike come from different tables or passages of the source.

Key:
Format in all cases: biochemical
Cdc25A = molecular target: T1, Cdc25A (Homo sapiens, UniProt P30304); test: Cdc25A phosphatase inhibition screen at 50 μM; settings: for inhibition at 50 µM: read-out: Percent Inhibition at 50 uM compound, Cdc25 A
T1 sequence (P30304 1-524): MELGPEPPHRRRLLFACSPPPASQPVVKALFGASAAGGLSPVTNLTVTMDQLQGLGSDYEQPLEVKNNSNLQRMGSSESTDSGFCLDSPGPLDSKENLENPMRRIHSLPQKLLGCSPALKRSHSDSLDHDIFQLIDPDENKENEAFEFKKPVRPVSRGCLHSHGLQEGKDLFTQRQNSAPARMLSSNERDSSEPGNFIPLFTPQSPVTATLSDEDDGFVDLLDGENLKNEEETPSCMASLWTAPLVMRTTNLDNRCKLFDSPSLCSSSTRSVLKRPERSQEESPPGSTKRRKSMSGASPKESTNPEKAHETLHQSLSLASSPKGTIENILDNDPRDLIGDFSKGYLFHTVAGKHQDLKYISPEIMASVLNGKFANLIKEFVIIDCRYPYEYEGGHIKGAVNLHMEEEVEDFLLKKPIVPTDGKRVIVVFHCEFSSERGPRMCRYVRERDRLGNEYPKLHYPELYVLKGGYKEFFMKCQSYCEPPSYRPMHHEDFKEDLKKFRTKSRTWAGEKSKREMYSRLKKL
Procedure: (§1) Using procedures known to those skilled in the art, the compounds listed in Table 3 were screened against Cdc25A, Cdc25B, and Cdc25C at 50 μM. […] To analyze these effects further, the compounds were then screened against Cdc25B in a 3 pt. IC-50, using 1, 7 and 50 μM. Several of the compounds were also screened with an 8 pt. IC-50 process, using 0.1–10 μM, allowing determination of Hill slopes.

Cdc25C = molecular target: T2, Cdc25C (Homo sapiens, UniProt P30307); test: Cdc25C phosphatase inhibition screen at 50 μM; settings: for inhibition at 50 µM: read-out: Percent Inhibition at 50 uM compound, Cdc25 C
T2 sequence (P30307 1-473): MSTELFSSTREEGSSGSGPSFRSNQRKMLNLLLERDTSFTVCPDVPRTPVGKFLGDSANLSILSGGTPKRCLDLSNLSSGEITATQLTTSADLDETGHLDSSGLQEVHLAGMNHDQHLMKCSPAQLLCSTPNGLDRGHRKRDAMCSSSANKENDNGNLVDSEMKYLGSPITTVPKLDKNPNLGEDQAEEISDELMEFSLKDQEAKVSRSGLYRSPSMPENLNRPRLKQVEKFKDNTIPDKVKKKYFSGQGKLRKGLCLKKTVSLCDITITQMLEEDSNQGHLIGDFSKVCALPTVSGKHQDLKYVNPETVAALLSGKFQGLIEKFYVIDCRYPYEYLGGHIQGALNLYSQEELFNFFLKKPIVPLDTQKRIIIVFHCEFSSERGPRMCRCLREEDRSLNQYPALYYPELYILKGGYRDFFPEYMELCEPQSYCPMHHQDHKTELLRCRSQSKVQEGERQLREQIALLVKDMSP
Procedure: as §1

Cdc25B = molecular target: T3, Cdc25B (Homo sapiens, UniProt P30305); test: Cdc25B phosphatase inhibition (50 μM screen, 3 pt. and 8 pt. IC-50); settings: for pIC50: Cdc25B; for inhibition at 50 µM: read-out: Percent Inhibition at 50 uM compound, Cdc25 B
T3 sequence (P30305 1-580): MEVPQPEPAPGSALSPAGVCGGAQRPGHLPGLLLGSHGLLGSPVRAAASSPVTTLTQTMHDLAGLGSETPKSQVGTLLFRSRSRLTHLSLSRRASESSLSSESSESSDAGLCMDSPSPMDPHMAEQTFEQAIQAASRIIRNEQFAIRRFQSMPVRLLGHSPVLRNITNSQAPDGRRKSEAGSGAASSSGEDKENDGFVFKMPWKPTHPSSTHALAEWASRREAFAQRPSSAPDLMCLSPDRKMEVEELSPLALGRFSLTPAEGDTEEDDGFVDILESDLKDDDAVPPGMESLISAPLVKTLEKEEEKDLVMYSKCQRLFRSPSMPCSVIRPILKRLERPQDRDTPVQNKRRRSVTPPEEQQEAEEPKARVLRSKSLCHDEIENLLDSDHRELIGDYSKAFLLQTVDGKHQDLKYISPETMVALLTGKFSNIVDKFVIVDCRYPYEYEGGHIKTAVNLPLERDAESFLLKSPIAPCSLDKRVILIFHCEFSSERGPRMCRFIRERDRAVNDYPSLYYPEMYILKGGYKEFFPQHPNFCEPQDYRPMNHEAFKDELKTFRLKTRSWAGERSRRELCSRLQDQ
Procedure: as §1

[1] = 3 pt. IC-50 using 1, 7 and 50 μM, read-out: IC50 (3 pt)
[2] = 8 pt. IC-50 using 0.1–10 μM, read-out: IC50 (8 pt)

| inhibition at 50 µM (Cdc25A) [%] | inhibition at 50 µM (Cdc25C) [%] | pIC50 (Cdc25B; [1]) | pIC50 (Cdc25B; [2]) | inhibition at 50 µM (Cdc25B) [%] | SMILES | Percent Inhibition at 50 uM compound, Cdc25 A (Cdc25A; 50 uM compound) [%] | Percent Inhibition at 50 uM compound, Cdc25 C (Cdc25C; 50 uM compound) [%] | Percent Inhibition at 50 uM compound, Cdc25 B (Cdc25B; 50 uM compound) [%] |
| --- | --- | --- | --- | --- | --- | --- | --- | --- |
| 55 | 69 | 4.85 | 4.78 | 75 | O=C1C=C(O)C(=O)C(c2c[nH]c3ccccc23)=C1O [2A, 2,5-dihydroxy-3(1H-indol-3-yl)-[1,4]-benzoquinone] |  |  |  |
| 63 | 19 | 3.73 |  | 42 | Cn1cc(C2=C(O)C(=O)C=C(O)C2=O)c2ccccc21 [2B, 2,5-dihydroxy-3-(1-methyl-1H-indol-3-yl)-[1,4]-benzoquinone] |  |  |  |
| 35 | 5 | 3.86 |  | 9 | Cc1[nH]c2ccccc2c1C1=C(O)C(=O)C=C(O)C1=O [2C, 2,5-dihydroxy-3-(2-methyl-1H-indol-3-yl)-[1,4]-benzoquinone] |  |  |  |
| 51 | 14 | 4.48 |  | 36 | CCc1[nH]c2ccccc2c1C1=C(O)C(=O)C=C(O)C1=O [2D, 2,5-dihydroxy-3-(2-ethyl-1H-indol-3-yl)-[1,4]-benzoquinone] |  |  |  |
| 79 | 0 | 5.64 | 4.61 | 32 | O=C1C=C(O)C(=O)C(c2c(C3CC3)[nH]c3ccccc23)=C1O [2E, 2,5-dihydroxy-3-(2-cyclopropyl-1H-indol-3-yl)-[1,4]-benzoquinone] |  |  |  |
| 58 | 0 | 5.08 |  | 13 | CC(C)c1[nH]c2ccccc2c1C1=C(O)C(=O)C=C(O)C1=O [2F, 2,5-dihydroxy-3-(2-isopropyl-1H-indol-3-yl)-[1,4]-benzoquinone] |  |  |  |
| 49 | 0 | 5.44 |  | 17 | CC1(c2[nH]c3ccccc3c2C2=C(O)C(=O)C=C(O)C2=O)CC1 [2G, 2,5-dihydroxy-3-[2-(1-methylcycloproyl)-1H-indol-3-yl]-[1,4]-benzoquinone] |  |  |  |
| 31 | 0 | 4.86 |  | 11 | CC(C)(C)c1[nH]c2ccccc2c1C1=C(O)C(=O)C=C(O)C1=O [2H, 2,5-dihydroxy-3-(2-tert-butyl-1H-indol-3-yl)-[1,4]-benzoquinone] |  |  |  |
| 69 | 22 | 4.08 |  | 11 | CC1(c2[nH]c3ccccc3c2C2=C(O)C(=O)C=C(O)C2=O)CCCCC1 [3A, 2,5-dihydroxy-3-[2-(1-methylcyclohexyl)-1H-indol-3-yl]-[1,4]-benzoquinone] |  |  |  |
| 93 | 18 | 4.65 |  | 38 | O=C1C=C(O)C(=O)C(c2c(-c3ccccc3)[nH]c3ccccc23)=C1O [3B, 2,5-dihydroxy-3-(2-phenyl-1H-indol-3-yl)-[1,4]-benzoquinone] |  |  |  |
| 40 | 21 | 4.39 |  | 0 | C=CC(C)(C)c1[nH]c2ccccc2c1C1=C(O)C(=O)C=C(O)C1=O [3C, 2,5-dihydroxy-3-[2-(1,1-dimethyl-allyl)-1H-indol-3-yl]-[1,4]-benzoquinone] |  |  |  |
| 59 | 0 | 5.92 | 4.80 | 5 | O=C1C=C(O)C(=O)C(c2c[nH]c3cccc(F)c23)=C1O [3D, 2,5-dihydroxy-3-(4-fluoro-1H-indol-3-yl)-[1,4]-benzoquinone] |  |  |  |
| 67 | 0 | 5.52 | 5.08 | 21 | O=C1C=C(O)C(=O)C(c2c[nH]c3cccc(Cl)c23)=C1O [3E, 2,5-dihydroxy-3-(4-chloro-1H-indol-3-yl)-[1,4]-benzoquinone] |  |  |  |
| 0 | 54 | 5.51 | < 5.70 | 6 | O=C1C=C(O)C(=O)C(c2c[nH]c3cccc(Br)c23)=C1O [3F, 2,5-dihydroxy-3-(4-bromo-1H-indol-3-yl)-[1,4]-benzoquinone] |  |  |  |
| 77 | 19 | 5.14 |  | 21 | COc1cccc2[nH]cc(C3=C(O)C(=O)C=C(O)C3=O)c12 [3G, 2,5-dihydroxy-3-(4-methoxy-1H-indol-3-yl)-[1,4]-benzoquinone] |  |  |  |
| 87 | 2 | 5.34 |  | 0 | O=C1C=C(O)C(=O)C(c2c[nH]c3cccc(OCc4ccccc4)c23)=C1O [3H, 2,5-dihydroxy-3-(4-benzyloxy-1H-indol-3-yl)-[1,4]-benzoquinone] |  |  |  |
| 51 | 28 | 5.22 |  | 9 | Cc1cccc2[nH]cc(C3=C(O)C(=O)C=C(O)C3=O)c12 [4A, 2,5-dihydroxy-3-(4-methyl-1H-indol-3-yl)-[1,4]-benzoquinone] |  |  |  |
| 64 | 23 | 4.93 |  | 32 | O=C1C=C(O)C(=O)C(c2c[nH]c3ccc(F)cc23)=C1O [4B, 2,5-dihydroxy-3-(5-fluoro-1H-indol-3-yl)-[1,4]-benzoquinone] |  |  |  |
| 95 | 45 | 5.64 |  | 32 | O=C1C=C(O)C(=O)C(c2c[nH]c3ccc(Cl)cc23)=C1O [4C, 2,5-dihydroxy-3-(5-chloro-1H-indol-3-yl)-[1,4]-benzoquinone] |  |  |  |
| 96 | 26 | 5.62 |  | 55 | O=C1C=C(O)C(=O)C(c2c[nH]c3ccc(Br)cc23)=C1O [4D, 2,5-dihydroxy-3-(5-bromo-1H-indol-3-yl)-[1,4]-benzoquinone] |  |  |  |
| 15 | 0 | 5.22 |  | 0 | COc1ccc2[nH]cc(C3=C(O)C(=O)C=C(O)C3=O)c2c1 [4F, 2,5-dihydroxy-3-(5-methoxy-1H-indol-3-yl)-[1,4]-benzoquinone] |  |  |  |
|  |  | 4.47 |  |  | Cc1cccc2c(C3=C(O)C(=O)C(c4c(C(C)(C)C)[nH]c5ccccc45)=C(Cl)C3=O)c[nH]c12 [11G, 2-(2-tert-butyl-1H-indol-3-yl)-5-(7-methyl-1H-indol-3-yl)-3-chloro-6-hydroxy-[1,4]-benzoquinone] |  |  |  |
|  |  | 5.17 |  |  | CC(C)(C)c1[nH]c2ccccc2c1C1=C(Cl)C(=O)C(c2c(-c3ccccc3)[nH]c3ccccc23)=C(O)C1=O [11H, 2-(2-tert-butyl-1H-indol-3-yl)-5-(2-phenyl-1H-indol-3-yl)-3-chloro-6-hydroxy-[1,4]-benzoquinone] |  |  |  |

| SMILES | inhibition at 50 µM (Cdc25A) [%] | inhibition at 50 µM (Cdc25C) [%] | pIC50 (Cdc25B; [1]) | pIC50 (Cdc25B; [2]) | inhibition at 50 µM (Cdc25B) [%] | Percent Inhibition at 50 uM compound, Cdc25 A (Cdc25A; 50 uM compound) [%] | Percent Inhibition at 50 uM compound, Cdc25 C (Cdc25C; 50 uM compound) [%] | Percent Inhibition at 50 uM compound, Cdc25 B (Cdc25B; 50 uM compound) [%] |
| --- | --- | --- | --- | --- | --- | --- | --- | --- |
| Cc1cccc2c(C3=C(O)C(=O)c4cccc(O)c4C3=O)c[nH]c12 [4E, 2,5-dihydoxy-3-(7-methyl-1H-indol-3-yl)-[1,4]naphthoquinone] |  |  | 4.16 |  |  | 10 | 0 | 0 |
